Tested on: low-density lipoproteins (LDL)
Experiment: Anti-oxidant test (TBARS production, Cu-induced LDL oxidation)
Type: biochemical
Settings: 5 μM CuSO4, 20 μg LDL, 37° C., 2 hours; TBARS absorbance 540 nm; FIG. 1
Experimental: In this experiment, production level of thiobarbituric acid-reactive substances (TBARS) was measured to determine oxidization level of low-density lipoproteins (LDL). Specifically, […], of each test article was mixed with 5 μM copper (II) sulfate (CuSO4) and 20 μg of LDL, and then incubated at 37° C. for 2 hours. 250 μL of 20% tricholoroacetic acid was added to the precipitated protein. After that, 250 μL of 0.67% 2-thiobarbituric acid was added to the obtained mixture and incubated at 80° C. for 30 minutes. The final resultant was separated to give a supernatant by centrifugation at 3,000 g for 5 minutes. 300 μL of the supernatant was taken to a 96-well plate to measure its absorbance under 540 nm.

inhibitory concentration (IC50) for anti-oxidant activity (rank order) | Compound
follow it sequentially | CC(C)(Sc1cc(C(C)(C)C)c(O)c(C(C)(C)C)c1)Sc1cc(C(C)(C)C)c(O)c(C(C)(C)C)c1 [probucol, Probucol]
follow it sequentially | Hp β subunit: haptoglobin β subunit

From patent US10195248B2, “Use of haptoglobin subunit for promoting wound healing” (Taipei Medical University, priority 2016, dated 2019)
